Experimental data taken from patent US20250129103A1, “METHODS FOR TREATMENT OF CANCER” (Frontier Medicines Corporation, priority 2022, published 2025).
Values after ≈ are worked out from the molar mass of the structure shown.

What was measured:
[1] = target: KRAS G12C (GMPPNP-loaded) and PI3Ka (Ras-binding domain) interaction (Homo sapiens (Human), UniProt P01116, C118S/C51S/C80L/G12C); assay: Inhibition of KRAS G12C and PI3Ka binding (AlphaScreen); settings: KRAS G12C loaded with GMPPNP, PI3Ka RBD, 2 hours preincubation; read-out: PI3K RBD K-Ras IC50
Method in brief: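 Biotin-AviTag Cys-light KRAS G12C (aa 1-169, C51S/C80L/C118S), GMPPNP-loaded, 1.5 nM, preincubated 2 h with compound, then His-tagged PI3Ka RBD (aa 157-300, 100 nM) plus AlphaScreen beads added for 60-90 min, RT. Buffer Hepes pH 7.4, 10 μM GMPPNP, 2% DMSO; 10-point 1:3 from 50 μM; 4-parameter IC50.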

[2] = target: KRAS G12C (GMPPNP-loaded) and cRAF (Ras-binding domain) interaction (Homo sapiens (Human), UniProt P01116, C118S/C51S/C80L/G12C); assay: Inhibition of KRAS G12C and cRAF binding (AlphaScreen); settings: KRAS G12C loaded with GMPPNP, cRaf RBD, 2 hours preincubation; read-out: Raf-1 RBD K-Ras IC50
Method in brief: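 GMPPNP-loaded KRAS G12C in 25 mM Hepes pH 7.4, 150 mM NaCl, 5 mM MgCl2, 0.01% Triton X-100, 10 μM GMPPNP, 2% DMSO, preincubated with compound 2 h at room temperature. cRAF RBD plus AlphaScreen beads then added for 60-90 min; signal read at 570 nm.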

[3] = Determination of kinetic solubility (pH 7.4); type: physicochemical; settings: phosphate buffer, pH 7.4, aqueous buffer, kinetic from dmso stock, 50 mM phosphate buffer pH 7.4, read-out: Ksol, pH 7.4
Method in brief: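 Sample mixed with 50 mM phosphate buffer, pH 7.4, vortexed, then shaken 2 h at room temperature and centrifuged. Filtrate analysed by HPLC-UV and LC-MS/MS, with solubility read from peak areas against a standard calibration curve.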

[4] = Determination of logD (1-octanol / phosphate buffer pH 7.4); type: physicochemical; settings: 1-octanol/phosphate buffer, pH 7.4, pH 7.4, 1-octanol/phosphate buffer; read-out: Log D, pH 7.4
Method in brief: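 Shake-flask partition between 1-octanol and 100 mM phosphate buffer pH 7.4, each phase presaturated with the other overnight. Tubes shaken 1 h at 800 rpm, room temperature, then centrifuged. Both phases quantified by LCMS and logD calculated from the ratio.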

KRAS G12C (GMPPNP-loaded) and cRAF (Ras-binding domain) interaction, sequence (P01116 other isoform, or with tags, fused parts or gaps G12C/C51S/C80L/C118S): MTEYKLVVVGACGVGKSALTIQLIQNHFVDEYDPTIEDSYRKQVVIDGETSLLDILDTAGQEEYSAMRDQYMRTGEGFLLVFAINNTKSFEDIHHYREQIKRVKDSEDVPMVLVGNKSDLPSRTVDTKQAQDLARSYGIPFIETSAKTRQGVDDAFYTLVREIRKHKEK
KRAS G12C (GMPPNP-loaded) and PI3Ka (Ras-binding domain) interaction, sequence (P01116 other isoform, or with tags, fused parts or gaps G12C/C51S/C80L/C118S): as above

| SMILES | IC50 [1] | IC50 [2] | solubility kinetic at 2 h [3] | logD [4] |
| --- | --- | --- | --- | --- |
| N#CC[C@H]1CN(c2nc(OC[C@@]34CCCN3C[C@H](F)C4)nc3c(F)c(-c4cccc5cccc(Cl)c45)ncc23)CCN1C(=O)/C=C/CN1CC2CCC(C1)O2 [Example 81, 2-((2S)-1-((E)-4-(8-oxa-3-azabicyclo[3.2.1]octan-3-yl)but-2-enoyl)-4-(7-(8-chloronaphthalen-1-yl)-8-fluoro-2-(((2R,7aS)-2-fluorohexahydro-1H-pyrrolizin-7a-yl)methoxy)pyrido[4,3-d]pyrimidin-4-yl)piperazin-2-yl)acetonitrile] | < 10 nM | < 10 nM | 74.4 µg/mL (≈ 96.7 µM) | 3.7 |
| Cc1nsc(/C=C/C(=O)N2CCN(c3nc(OC[C@@]45CCCN4C[C@H](F)C5)nc4c3CCN(c3cccc5cccc(Cl)c35)C4)C[C@@H]2CC#N)n1 [Compound 127] | < 10 nM | < 10 nM | 0.01 µg/mL (≈ 0.0137 µM) | 4.77 |
| N#CC[C@H]1CN(c2nc(OC[C@@]34CCCN3C[C@H](F)C4)nc3c(F)c(-c4cccc5ccc(F)c(Cl)c45)ncc23)CCN1C(=O)/C=C/CN1CCCOCC1 [Example 70, 2-((S)-1-((E)-4-(1,4-oxazepan-4-yl)but-2-enoyl)-4-(7-(8-chloro-7-fluoronaphthalen-1-yl)-8-fluoro-2-(((2R,7aS)-2-fluorotetrahydro-1H-pyrrolizin-7a(5H)-yl)methoxy)pyrido[4,3-d]pyrimidin-4-yl)piperazin-2-yl)acetonitrile] | < 10 nM | < 10 nM | 124 µg/mL (≈ 160 µM) | 3.25 |
| N#CC[C@H]1CN(c2nc(OC[C@@]34CCCN3C[C@H](F)C4)nc3c(F)c(-c4cccc5ccc(F)c(Cl)c45)ncc23)CCN1C(=O)/C=C/CN1CC2(COC2)C1 [Compound 161] | < 10 nM | < 10 nM | 87.7 µg/mL (≈ 113 µM) | 2.75 |
| CC(C)c1noc(/C=C/C(=O)N2CCN(c3nc(OCC45CCCN4CCC5)nc4c3CNC(c3cccc5cccc(Cl)c35)C4F)C[C@@H]2CC#N)n1 (stereo partly shown) [Compound 124] | 10 to 100 nM | 10 to 100 nM | 0.23 µg/mL (≈ 0.311 µM) | 4.21 |
| CCc1noc(/C=C/C(=O)N2CCN(c3nc(OCC45CCCN4CCC5)nc4c3CCN(c3cccc5cccc(Cl)c35)C4)C[C@@H]2CC#N)n1 [Compound 25] | ≥ 500 nM | > 500 nM | 0.01 µg/mL (≈ 0.0141 µM) | 4.9 |
| N#CC[C@H]1CN(c2nc(OCC34CCCN3CCC4)nc3c2CCN(c2cccc4cccc(Cl)c24)C3)CCN1C(=O)/C=C/c1nc(C(F)F)no1 [Compound 19] | < 10 nM | < 10 nM | 24.4 µg/mL (≈ 33.5 µM) | 3.33 |
| Cc1cc(/C=C/C(=O)N2CCN(c3nc(OC[C@@]45CCCN4C[C@H](F)C5)nc4c(F)c(-c5cccc6cccc(F)c56)ncc34)C[C@@H]2CC#N)nc(C)n1 [Compound 214] | < 10 nM | 10 to 100 nM | 6.14 µg/mL (≈ 8.37 µM) | 4.02 |
| CCO[C@H]1CCN(C/C=C/C(=O)N2CCN(c3nc(OC[C@@]45CCCN4C[C@H](F)C5)nc4c(F)c(-c5cccc6cccc(Cl)c56)ncc34)C[C@@H]2CC#N)C1 [Compound 91, 2-((S)-4-(7-(8-chloronaphthalen-1-yl)-8-fluoro-2-(((2R,7aS)-2-fluorohexahydro-1H-pyrrolizin-7a-yl)methoxy)pyrido[4,3-d]pyrimidin-4-yl)-1-((E)-4-((S)-3-ethoxypyrrolidin-1-yl)but-2-enoyl)piperazin-2-yl)acetonitrile] | < 10 nM | < 10 nM | 110 µg/mL (≈ 143 µM) | 1.83 |
| N#CC[C@H]1CN(c2nc(OC[C@@]34CCCN3C[C@H](F)C4)nc3c(F)c(-c4cccc5cccc(Cl)c45)ncc23)CCN1C(=O)/C=C/CN1C2COCC1C2 [Compound 189] | < 10 nM | < 10 nM | 109 µg/mL (≈ 144 µM) | 2.96 |
| N#CC[C@H]1CN(c2nc(OC[C@@]34CCCN3C[C@H](F)C4)nc3c(F)c(-c4cccc(Cl)c4C4CC4)ncc23)CCN1C(=O)/C=C/CN1CC2CC(C1)O2 [Compound 244] | 10 to 100 nM | < 10 nM | 121 µg/mL (≈ 163 µM) | 3.13 |
| N#CC[C@H]1CN(c2nc(OC[C@@]34CCCN3C[C@H](F)C4)nc3c(F)c(-c4cccc5cccc(Cl)c45)ncc23)CCN1C(=O)/C=C/c1ccnc(C2CC2)n1 [Compound 154] | < 10 nM | < 10 nM | 0.01 µg/mL (≈ 0.0131 µM) | 4.36 |
| N#CC[C@H]1CN(c2nc(OC[C@@]34CCCN3C[C@H](F)C4)nc3c2CCN(c2cccc4cccc(Cl)c24)C3)CCN1C(=O)/C=C/c1nc(C(F)F)no1 [Compound 18] | < 10 nM | < 10 nM | 0.01 µg/mL (≈ 0.0134 µM) | 4.78 |
| CO[C@H]1CCN(C/C=C/C(=O)N2CCN(c3nc(OC[C@@]45CCCN4C[C@H](F)C5)nc4c(F)c(-c5cccc6cccc(F)c56)ncc34)C[C@@H]2CC#N)C1 [Compound 222] | < 10 nM | < 10 nM | 91.6 µg/mL (≈ 124 µM) | 2.76 |
| COCCN(C)C/C=C/C(=O)N1CCN(c2nc(OC[C@@]34CCCN3C[C@H](F)C4)nc3c(F)c(-c4cccc5cccc(Cl)c45)ncc23)C[C@@H]1CC#N [Compound 320] | < 10 nM | < 10 nM | 104 µg/mL (≈ 139 µM) | 3.05 |
| N#CC[C@H]1CN(c2nc(OC[C@@]34CCCN3C[C@H](F)C4)nc3c(F)c(-c4cccc(Cl)c4C(F)(F)F)ncc23)CCN1C(=O)/C=C/CN1[C@@H]2CC[C@H]1COC2 [Compound 111, 2-((S)-1-((E)-4-((1R,5S)-3-oxa-8-azabicyclo[3.2.1]octan-8-yl)but-2-enoyl)-4-(7-(3-chloro-2-(trifluoromethyl)phenyl)-8-fluoro-2-(((2R,7aS)-2-fluorotetrahydro-1H-pyrrolizin-7a(5H)-yl)methoxy)pyrido[4,3-d]pyrimidin-4-yl)piperazin-2-yl)acetonitrile] | < 10 nM | < 10 nM | 133 µg/mL (≈ 169 µM) | 3.23 |
| C[C@@H]1CN(C/C=C/C(=O)N2CCN(c3nc(OC[C@@]45CCCN4C[C@H](F)C5)nc4c(F)c(-c5cccc6cccc(Cl)c56)ncc34)C[C@@H]2CC#N)C[C@@H](C)O1 [Compound 187] | < 10 nM | < 10 nM | 84 µg/mL (≈ 109 µM) | 3.61 |
| Cc1noc(/C=C/C(=O)N2CCN(c3nc(OC[C@@]45CCCN4C[C@H](F)C5)nc4c(F)c(-c5cccc6cccc(Cl)c56)ncc34)C[C@@H]2CC#N)n1 [Example 4, 2-((S)-4-(7-(8-chloronaphthalen-1-yl)-8-fluoro-2-(((2R,7aS)-2-fluorotetrahydro-1H-pyrrolizin-7a(5H)-yl)methoxy)pyrido[4,3-d]pyrimidin-4-yl)-1-((E)-3-(3-methyl-1,2,4-oxadiazol-5-yl)acryloyl)piperazin-2-yl)acetonitrile] | 10 to 100 nM | 10 to 100 nM | 3.98 µg/mL (≈ 5.48 µM) | 3.54 |
| Cc1cc(N)nc([C@@H]2Cc3nc(OC[C@@]45CCCN4C[C@H](F)C5)nc(N4CCN(C(=O)/C=C/CN(C)C)[C@@H](CC#N)C4)c3C[C@H]2C)c1C(F)(F)F [Compound 322] | < 10 nM | < 10 nM | 133 µg/mL (≈ 186 µM) | 2.79 |
| N#CC[C@H]1CN(c2nc(OC[C@@]34CCCN3C[C@H](F)C4)nc3c(F)c(-c4cccc5ccc(F)c(F)c45)ncc23)CCN1C(=O)/C=C/CN1CCOCC1 [Example 83, 2-((S)-4-(7-(7,8-difluoronaphthalen-1-yl)-8-fluoro-2-(((2R,7aS)-2-fluorotetrahydro-1H-pyrrolizin-7a(5H)-yl)methoxy)pyrido[4,3-d]pyrimidin-4-yl)-1-((E)-4-morpholinobut-2-enoyl)piperazin-2-yl)acetonitrile] | < 10 nM | < 10 nM | 93.4 µg/mL (≈ 125 µM) | 2.98 |
| N#CC[C@H]1CN(c2nc(OC[C@@]34CCCN3C[C@H](F)C4)nc3c(F)c(-c4cccc5cccc(Cl)c45)ncc23)CCN1C(=O)/C=C/CN1C[C@H]2COC[C@H]2C1 [Compound 228] | < 10 nM | < 10 nM | 94.8 µg/mL (≈ 123 µM) | 3.08 |
| Cc1nsc(/C=C/C(=O)N2CCN(c3nc(OCC45CCCN4CCC5)nc4c3CCN(c3cccc5cccc(Cl)c35)C4)C[C@@H]2CC#N)n1 [Example 9, (S,E)-2-(4-(7-(8-chloronaphthalen-1-yl)-2-((hexahydro-1H-pyrrolizin-7a-yl)methoxy)-5,6,7,8-tetrahydropyrido[3,4-d]pyrimidin-4-yl)-1-(3-(3-methyl-1,2,4-thiadiazol-5-yl)acryloyl)piperazin-2-yl)acetonitrile] | < 10 nM | < 10 nM | 67 µg/mL (≈ 94.4 µM) | 3.55 |
